Data from patent US20200361914A1, “SUBSTITUTED BENZENE AND 6,5-FUSED BICYCLIC HETEROARYL COMPOUNDS” (Epizyme, Inc., priority 2014, published 2020).
Read-outs that look alike come from different tables or passages of the source.

Key:
[1] = tested on: H3K27 trimethylation in WSU-DLCL2 cells; assay: WSU-DLCL2 methylation assay (H3K27me3 ELISA); assay type: cell-based, Human; details: H3K27me3 normalised to total H3, read-out: EZH2 WSU ELISA IC50
Excerpt: WSU-DLCL2 Methylation Assay
WSU-DLCL2 suspension cells are purchased from DSMZ (German Collection of Microorganisms and Cell Cultures, Braunschweig, Germany). RPMI/Glutamax Medium, Penicillin-Streptomycin, Heat Inactivated Fetal Bovine Serum, and D-PBS were purchased from Life Technologies, Grand Island, N.Y., USA. Extraction Buffer and Neutralization Buffer (5×) were purchased from Active Motif, Carlsbad, Calif., USA. Rabbit anti-Histone H3 antibody is purchased from Abcam, Cambridge, Mass., USA. Rabbit anti-H3K27me3 and HRP-conjugated anti-rabbit-IgG are purchased from Cell Signaling Technology, Danvers, Mass., USA. TMB “Super Sensitive” substrate is sourced from BioFX Laboratories, Owings Mills, Md., USA. IgG-free Bovine Serum Albumin is purchased from Jackson ImmunoResearch, West Grove, Pa., USA. PBS with Tween (10×PBST) was purchased from KPL, Gaithersburg, Md., USA. Sulfuric Acid is purchased from Ricca Chemical, Arlington, Tex., USA. Immulon ELISA plates were purchased from Thermo, Rochester, N.Y., USA. V-bottom cell culture plates are purchased from Corning Inc., Corning, N.Y., USA.V-bottom polypropylene plates were purchased from Greiner Bio-One, Monroe, N.C., USA.
WSU-DLCL2 suspension cells are maintained in growth medium (RPMI 1640 supplemented with 10% v/v heat inactivated fetal bovine serum and 100 units/mL penicillin-streptomycin) and cultured at 37° C. under 5% CO2. Under assay conditions, cells are incubated in Assay Medium (RPMI 1640 supplemented with 20% v/v heat inactivated fetal bovine serum and 100 units/mL penicillin-streptomycin) at 37° C. under 5% CO2 on a plate shaker.
WSU-DLCL2 cells are seeded in assay medium at a concentration of 50,000 cells per mL to a 96-well V-bottom cell culture plate with 200 μL per well. Compound (1 μL) from 96 well source plates is added directly to V-bottom cell plate. Plates are incubated on a titer-plate shaker at 37° C., 5% CO2 for 96 hours. After four days of incubation, plates are spun at 241×g for five minutes and medium was aspirated gently from each well of cell plate without disturbing cell pellet. Pellet is resuspended in 200 μL DPBS and plates are spun again at 241×g for five minutes. The supernatant is aspirated and cold (4° C.) Extraction buffer (100 μL) is added per well. Plates are incubated at 4° C. on orbital shaker for two hours. Plates are spun at 3427×g x 10 minutes. Supernatant (80 μL per well) is transferred to its respective well in 96 well V-bottom polypropylene plate. Neutralization Buffer 5×(20 μL per well) is added to V-bottom polypropylene plate containing supernatant. V-bottom polypropylene plates containing crude histone preparation (CHP) are incubated on orbital shaker x five minutes. Crude Histone Preparations are added (2 μL per well) to each respective well into duplicate 96 well ELISA plates containing 100 μL Coating Buffer (1×PBS+BSA 0.05% w/v). Plates are sealed and incubated overnight at 4° C. The following day, plates were washed three times with 300 μL per well 1×PBST. Wells are blocked for two hours with 300 μL per well ELISA Diluent ((PBS (1×) BSA (2% w/v) and Tween20 (0.05% v/v)). Plates are washed three times with 1×PBST. For the Histone H3 detection plate, 100 μL per well are added of anti-Histone-H3 antibody (Abcam, ab1791) diluted 1:10,000 in ELISA Diluent. For H3K27 trimethylation detection plate, 100 μL per well are added of anti-H3K27me3 diluted 1:2000 in ELISA diluent. Plates are incubated for 90 minutes at room temperature. Plates are washed three times with 300 μL 1×PBST per well. For Histone H3 detection, 100 μL of HRP-conjugated anti-rabbit IgG antibody diluted to 1:6000 in ELISA diluent is added per well. For H3K27me3 detection, 100 μL of HRP conjugated anti-rabbit IgG antibody diluted to 1:4000 in ELISA diluent is added per well. Plates are incubated at room temperature for 90 minutes. Plates are washed four times with 1×PBST 300 μL per well. TMB substrate 100 μL is added per well. […]

[2] = biological target: wild-type PRC2 enzyme (EZH2 WT) (Homo sapiens, UniProt Q15910); assay: PRC2 enzyme assay on peptide substrate, wild-type EZH2
wild-type PRC2 enzyme (EZH2 WT), sequence (Q15910 whole entry): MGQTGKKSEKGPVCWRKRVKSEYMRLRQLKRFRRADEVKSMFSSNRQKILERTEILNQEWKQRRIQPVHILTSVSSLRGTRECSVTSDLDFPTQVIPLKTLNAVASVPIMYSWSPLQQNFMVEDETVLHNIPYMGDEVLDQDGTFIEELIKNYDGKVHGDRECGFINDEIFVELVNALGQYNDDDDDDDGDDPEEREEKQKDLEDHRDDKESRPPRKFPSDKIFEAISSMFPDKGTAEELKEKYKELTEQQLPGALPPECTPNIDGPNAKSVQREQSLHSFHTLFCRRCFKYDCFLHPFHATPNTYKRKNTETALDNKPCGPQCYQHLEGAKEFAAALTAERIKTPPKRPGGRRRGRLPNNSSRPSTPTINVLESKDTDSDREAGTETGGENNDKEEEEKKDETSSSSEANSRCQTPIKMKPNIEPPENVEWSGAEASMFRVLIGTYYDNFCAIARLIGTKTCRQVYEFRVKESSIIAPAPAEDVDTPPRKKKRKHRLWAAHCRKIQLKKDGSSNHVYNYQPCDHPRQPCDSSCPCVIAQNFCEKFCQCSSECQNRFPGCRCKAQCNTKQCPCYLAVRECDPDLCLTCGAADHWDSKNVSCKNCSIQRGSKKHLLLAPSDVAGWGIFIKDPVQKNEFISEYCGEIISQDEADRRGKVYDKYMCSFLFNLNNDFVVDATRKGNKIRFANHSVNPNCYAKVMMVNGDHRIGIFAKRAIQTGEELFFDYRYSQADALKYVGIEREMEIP
wild-type PRC2 enzyme (EZH2 WT), sequence (O75530 whole entry partner): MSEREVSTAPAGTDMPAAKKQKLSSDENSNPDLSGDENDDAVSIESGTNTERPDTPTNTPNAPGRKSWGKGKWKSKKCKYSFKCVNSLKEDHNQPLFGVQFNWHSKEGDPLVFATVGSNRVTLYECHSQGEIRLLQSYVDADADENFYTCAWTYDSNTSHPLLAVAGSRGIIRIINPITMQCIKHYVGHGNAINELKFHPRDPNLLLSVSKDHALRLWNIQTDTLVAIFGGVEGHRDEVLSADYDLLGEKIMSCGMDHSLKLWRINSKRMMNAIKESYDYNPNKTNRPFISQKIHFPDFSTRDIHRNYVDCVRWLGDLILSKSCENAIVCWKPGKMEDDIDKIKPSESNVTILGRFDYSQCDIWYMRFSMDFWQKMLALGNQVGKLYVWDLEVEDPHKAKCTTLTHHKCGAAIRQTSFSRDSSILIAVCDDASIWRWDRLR
wild-type PRC2 enzyme (EZH2 WT), sequence (Q15022 whole entry partner): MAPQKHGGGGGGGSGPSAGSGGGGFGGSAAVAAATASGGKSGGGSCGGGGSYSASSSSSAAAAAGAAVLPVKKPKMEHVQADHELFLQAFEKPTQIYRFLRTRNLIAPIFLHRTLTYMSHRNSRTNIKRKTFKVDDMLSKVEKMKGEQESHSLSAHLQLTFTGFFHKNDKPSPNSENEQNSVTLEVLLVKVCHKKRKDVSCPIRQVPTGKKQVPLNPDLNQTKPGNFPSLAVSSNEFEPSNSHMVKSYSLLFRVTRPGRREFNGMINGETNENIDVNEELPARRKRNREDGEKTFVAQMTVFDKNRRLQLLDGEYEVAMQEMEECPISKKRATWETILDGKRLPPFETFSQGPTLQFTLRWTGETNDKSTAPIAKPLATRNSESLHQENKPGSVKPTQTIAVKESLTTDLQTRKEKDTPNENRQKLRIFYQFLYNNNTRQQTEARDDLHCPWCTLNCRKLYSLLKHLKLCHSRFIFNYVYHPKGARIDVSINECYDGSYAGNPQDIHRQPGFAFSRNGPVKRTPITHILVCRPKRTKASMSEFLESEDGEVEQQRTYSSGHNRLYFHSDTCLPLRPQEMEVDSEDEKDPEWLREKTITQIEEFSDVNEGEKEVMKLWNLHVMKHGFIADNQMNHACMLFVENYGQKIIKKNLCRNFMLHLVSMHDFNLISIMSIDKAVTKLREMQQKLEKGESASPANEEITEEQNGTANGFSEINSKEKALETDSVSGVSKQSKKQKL
wild-type PRC2 enzyme (EZH2 WT), sequence (Q09028 whole entry partner): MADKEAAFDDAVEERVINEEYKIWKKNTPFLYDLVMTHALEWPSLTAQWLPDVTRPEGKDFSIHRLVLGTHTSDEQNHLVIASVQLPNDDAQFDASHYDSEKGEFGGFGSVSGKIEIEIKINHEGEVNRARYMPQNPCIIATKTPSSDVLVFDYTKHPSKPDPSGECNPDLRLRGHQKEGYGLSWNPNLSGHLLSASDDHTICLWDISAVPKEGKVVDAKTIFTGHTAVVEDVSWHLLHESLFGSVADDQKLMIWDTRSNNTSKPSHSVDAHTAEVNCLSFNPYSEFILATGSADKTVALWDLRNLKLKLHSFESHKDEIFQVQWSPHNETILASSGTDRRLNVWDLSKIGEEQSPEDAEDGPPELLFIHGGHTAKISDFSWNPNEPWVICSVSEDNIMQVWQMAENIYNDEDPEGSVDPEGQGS
Excerpt: (§1) S-adenosylmethionine (SAM), S-adenosylhomocyteine (SAH), bicine, KCl, Tween20, dimethylsulfoxide (DMSO) and bovine skin gelatin (BSG) can be purchased from Sigma-Aldrich at the highest level of purity possible. Dithiothreitol (DTT) was purchased from EMD. ^3H-SAM can be purchased from American Radiolabeled Chemicals with a specific activity of 80 C1/mmol. 384-well streptavidin Flashplates can be purchased from PerkinElmer.
(§2) Recombinant PRC2 Enzymes. Human PRC2 enzymes are purified as 4-component enzyme complexes co-expressed in Spodoptera frugiperda (sf9) cells using a baculovirus expression system. […] The EED subunit contains an N-terminal FLAG tag that is used to purify the entire 4-component complex from sf9 cell lysates. The purity of the complexes meets or exceeds 95% as determined by SDS-PAGE and Agilent Bioanalyzer analysis.
(§3) General Procedure for PRC2 Enzyme Assays on Peptide Substrates. The assays are all performed in a buffer consisting of 20 mM bicine (pH=7.6), 0.5 mM DTT, 0.005% BSG and 0.002% Tween20, prepared on the day of use. […] DMSO (1 μL) is added to columns 11, 12, 23, 24, rows A-H for the maximum signal control, and SAH, a known product and inhibitor of PRC2 (1 μL) is added to columns 11, 12, 23, 24, rows I-P for the minimum signal control. A cocktail (40 μL) containing the wild-type PRC2 enzyme and H3K27me0 peptide or any of the Y641 mutant enzymes and H3K27me2 peptide is added by Multidrop Combi (Thermo). The compounds are allowed to incubate with PRC2 for 30 min at 25° C., then a cocktail (10 μL) containing a mixture of non-radioactive and ^3H-SAM is added to initiate the reaction (final volume=51 μL). […] The assays are stopped by the addition of non-radioactive SAM (10 μL) to a final concentration of 600 μM, which dilutes the ^3H-SAM to a level where its incorporation into the peptide substrate is no longer detectable. 50 μL of the reaction in the 384-well polypropylene plate is then transferred to a 384-well Flashplate and the biotinylated peptides are allowed to bind to the streptavidin surface for at least 1h before being washed three times with 0.1% Tween20 in a Biotek ELx405 plate washer. The plates are then read in a PerkinElmer TopCount platereader to measure the quantity of ^3H-labeled peptide bound to the Flashplate surface, measured as disintegrations per minute (dpm) or alternatively, referred to as counts per minute (cpm).
(§4) Where dpm=disintegrations per minute, cmpd=signal in assay well, and min and max are the respective minimum and maximum signal controls.
(§5) Where top and bottom are the normally allowed to float, but may be fixed at 100 or 0 respectively in a 3-parameter fit. The Hill Coefficient normally allowed to float but may also be fixed at 1 in a 3-parameter fit. Y is the % inhibition and X is the compound concentration.

[3] = biological target: Y641 mutant PRC2 enzyme (EZH2 Y641) (Homo sapiens, UniProt Q15910, Y641F); assay: PRC2 enzyme assay on peptide substrate, Y641 mutant EZH2
Y641 mutant PRC2 enzyme (EZH2 Y641), sequence (Q15910 whole entry Y641F): as the sequence (Q15910 whole entry) above, with Y641F counted along it
Y641 mutant PRC2 enzyme (EZH2 Y641), sequence (O75530 whole entry partner): as the sequence (O75530 whole entry partner) above
Y641 mutant PRC2 enzyme (EZH2 Y641), sequence (Q15022 whole entry partner): as the sequence (Q15022 whole entry partner) above
Y641 mutant PRC2 enzyme (EZH2 Y641), sequence (Q09028 whole entry partner): as the sequence (Q09028 whole entry partner) above
Excerpt: as §1, §2, §3, §4, §5

[4] = Homo sapiens, WSUDLCL2, 96 h, 96 hours incubation
[5] = Homo sapiens, WSUDLCL2, 96 hours incubation

Structure (SMILES)	IC50 [1, 4] [µM]	IC50 ([1]; 96 hours incubation) [µM]	IC50 [1, 5] [µM]	IC50 [2] [µM]	IC50 [3] [µM]
Cc1cc(C)c(CNC(=O)c2c(C)n(C(C)C3CCOCC3)c3ccccc23)c(=O)[nH]1 (racemic) [compound 19, N-((4,6-dimethyl-2-oxo-1,2-dihydropyridin-3-yl)methyl)-2-methyl-1-(1-(tetrahydro-2H-pyran-4-yl)ethyl)-1H-indole-3-carboxamide]	1 to 10				
COc1cc(C)[nH]c(=O)c1CNC(=O)c1c(C)n(C(C)C2CCOCC2)c2ccccc12 (racemic) [compound 24, N-((4-methoxy-6-methyl-2-oxo-1,2-dihydropyridin-3-yl)methyl)-2-methyl-1-(1-(tetrahydro-2H-pyran-4-yl)ethyl)-1H-indole-3-carboxamide]	1 to 10				
COc1cc(C)[nH]c(=O)c1CNC(=O)c1c(C)n(C(C)C2CCOCC2)c2ccccc12 (single isomer, unassigned) [24a, N-((4-methoxy-6-methyl-2-oxo-1,2-dihydropyridin-3-yl)methyl)-2-methyl-1-(1-(tetrahydro-2H-pyran-4-yl)ethyl)-1H-indole-3-carboxamide]		10 to 50			
COc1cc(C)[nH]c(=O)c1CNC(=O)c1c(C)n(C(C)C2CCOCC2)c2ccccc12 (single isomer, unassigned) [24b, N-((4-methoxy-6-methyl-2-oxo-1,2-dihydropyridin-3-yl)methyl)-2-methyl-1-(1-(tetrahydro-2H-pyran-4-yl)ethyl)-1H-indole-3-carboxamide]		1 to 10			
Cc1cc(C)c(CNC(=O)c2ccc(C(C)Oc3ccccc3)cc2C)c(=O)[nH]1 (centres unmarked) [compound 5, N-((4,6-dimethyl-2-oxo-1,2-dihydropyridin-3-yl)methyl)-2-methyl-4-(1-phenoxyethyl)benzamide]			10 to 50	0.1 to 1	0.1 to 1
Cc1cc(=O)c(CNC(=O)c2ccc(C(C)Oc3ccccc3)cc2C)c(C)[nH]1 (centres unmarked) [compound 6, N-((2,6-dimethyl-4-oxo-1,4-dihydropyridin-3-yl)methyl)-2-methyl-4-(1-phenoxyethyl)benzamide]			> 25	> 50	10 to 50
Cc1cc(C)c(CNC(=O)c2cc(Cl)c(C(C)Oc3ccccc3)cc2C)c(=O)[nH]1 (centres unmarked) [compound 12, 5-chloro-N-((4,6-dimethyl-2-oxo-1,2-dihydropyridin-3-yl)methyl)-2-methyl-4-(1-phenoxyethyl)benzamide]			> 25	0.1 to 1	< 0.1
Cc1cc(=O)c(CNC(=O)c2cc(Cl)c(Oc3cccc(-c4ccnnc4)c3C#N)cc2C)c(C)[nH]1 [compound 16, 5-chloro-4-(2-cyano-3-(pyridazin-4-yl)phenoxy)-N-((2,6-dimethyl-4-oxo-1,4-dihydropyridin-3-yl)methyl)-2-methylbenzamide]			> 25		
CCC(C)n1cc(C)c2c(C(=O)NCc3c(C)[nH]c(C)cc3=O)cc(-c3ccc(N4CCNCC4)nc3)cc21 (centres unmarked) [compound 25, 1-(sec-butyl)-N-((2,6-dimethyl-4-oxo-1,4-dihydropyridin-3-yl)methyl)-3-methyl-6-(6-(piperazin-1-yl)pyridin-3-yl)-1H-indole-4-carboxamide]			10 to 50	< 0.1	< 0.1
CCN(c1cc(-c2ccc(OCCOC)cc2)cc(C(=O)NC2CC(C)(C)NC(C)(C)C2)c1C)[C@H]1CC[C@H](N(C)C)CC1 [compound 33, 5-(((trans)-4-(dimethylamino)cyclohexyl)(ethyl)amino)-4′-(2-methoxyethoxy)-4-methyl-N-(2,2,6,6-tetramethylpiperidin-4-yl)-[1,1′-biphenyl]-3-carboxamide]			> 25	10 to 50	10 to 50
